≈ marks a conversion by molar mass, not a printed value. Calls of active or inactive are those of the source. The calls are words filed in the database; no cut-off is given here.
Key:
Candida albicans [1] = test: Antifungal activity against Candida albicans assessed as reduction in fungal growth incubated for 24 hrs by broth microdilution method; type: functional
Cryptococcus neoformans [2] = test: Antifungal activity against Cryptococcus neoformans NR-41299 assessed as reduction in fungal growth incubated for 24 hrs by broth microdilution method; type: functional; settings: NR-41299, 24 h
Cryptococcus neoformans [3] = test: Antifungal activity against Cryptococcus neoformans NR-41292 assessed as reduction in fungal growth incubated for 24 hrs by broth microdilution method; type: functional; settings: NR-41292, 24 h
Cryptococcus neoformans [4] = test: Antifungal activity against Cryptococcus neoformans NR-41298 assessed as reduction in fungal growth incubated for 24 hrs by broth microdilution method; type: functional; settings: NR-41298, 24 h
Candida albicans [5] = test: Antifungal activity against Candida albicans NR-29434 assessed as reduction in fungal growth incubated for 24 hrs by broth microdilution method; type: functional; settings: NR-29434, 24 h
Candida albicans [6] = test: Antifungal activity against Candida albicans NR-29366 assessed as reduction in fungal growth incubated for 24 hrs by broth microdilution method; type: functional, organism-based
Cryptococcus neoformans [7] = test: Antifungal activity against Cryptococcus neoformans NR-41297 assessed as reduction in fungal growth incubated for 24 hrs by broth microdilution method; type: functional; settings: NR-41297, 24 h
Cryptococcus neoformans [8] = test: Antifungal activity against Cryptococcus neoformans NR-41296 assessed as reduction in fungal growth incubated for 24 hrs by broth microdilution method; type: functional; settings: NR-41296, 24 h
Candida albicans [9] = test: Antifungal activity against Candida albicans NR-29449 assessed as reduction in fungal growth incubated for 24 hrs by broth microdilution method; type: functional; settings: NR-29449, 24 h
Candida albicans [10] = test: Antifungal activity against Candida albicans NR-29438 assessed as reduction in fungal growth incubated for 24 hrs by broth microdilution method; type: functional; settings: NR-29438, 24 h
Cryptococcus neoformans [11] = test: Antifungal activity against Cryptococcus neoformans NR-41291 assessed as reduction in fungal growth incubated for 24 hrs by broth microdilution method; type: functional; settings: NR-41291, 24 h
HCT-116 = test: Cytotoxicity against human HCT116 cells assessed as reduction in cell viability at 2 to 128 ug/ml incubated for 24 hrs by MTS assay; type: cell-based; settings: hct-116, 24 h
Cryptococcus neoformans [12] = test: Antifungal activity against Cryptococcus neoformans NR-41295 assessed as reduction in fungal growth incubated for 24 hrs by broth microdilution method; type: functional; settings: NR-41295, 24 h
Cryptococcus neoformans [13] = test: Antifungal activity against Cryptococcus neoformans NR-41294 assessed as reduction in fungal growth incubated for 24 hrs by broth microdilution method; type: functional; settings: NR-41294, 24 h
Candida albicans [14] = test: Antifungal activity against Candida albicans NR-29442 assessed as reduction in fungal growth incubated for 24 hrs by broth microdilution method; type: functional; settings: NR-29442, 24 h
Candida albicans [15] = test: Antifungal activity against Candida albicans NR-29439 assessed as reduction in fungal growth incubated for 24 hrs by broth microdilution method; type: functional; settings: NR-29439, 24 h
Candida albicans [16] = test: Antifungal activity against Candida albicans NR-29441 assessed as reduction in fungal growth incubated for 24 hrs by broth microdilution method; type: functional; settings: NR-29441, 24 h
Candida albicans [17] = test: Antifungal activity against Candida albicans NR5-29453 assessed as reduction in fungal growth incubated for 24 hrs by broth microdilution method; type: functional; settings: NR5-29453, 24 h
Candida albicans [18] = test: Antifungal activity against Candida albicans NR-29367 assessed as reduction in fungal growth incubated for 24 hrs by broth microdilution method; type: functional; settings: NR-29367, 24 h
Candida albicans [19] = test: Inhibition of biofilm formation in Candida albicans assessed as reduction in metabolic activity at 32 and 64 ug/ml incubated for 48 hrs by MTS assay; type: functional
Candida albicans [20] = test: Antifungal activity against Candida albicans NR-29435 assessed as reduction in fungal growth incubated for 24 hrs by broth microdilution method; type: functional; settings: NR-29435, 24 h
Candida albicans [21] = test: Antifungal activity against Candida albicans assessed as reduction in hyphae formation and attachment at 32 to 64 ug/ml incubated for 12 hrs by crystal violet dye-based microscopic analysis; type: functional; parameters: scale not given: the % may be the effect or the level left
Candida albicans [22] = test: Antifungal activity against Candida albicans NR-29446 assessed as reduction in fungal growth incubated for 24 hrs by broth microdilution method; type: functional; settings: NR-29446, 24 h
Candida albicans [23] = test: Antifungal activity against Candida albicans ATCC 10231 assessed as reduction in fungal growth incubated for 24 hrs by broth microdilution method; type: functional; settings: ATCC 10231, 24 h
Candida albicans [24] = test: Antifungal activity against Candida albicans NR-29440 assessed as reduction in fungal growth incubated for 24 hrs by broth microdilution method; type: functional; settings: NR-29440, 24 h
Candida albicans [25] = test: Antifungal activity against Candida albicans NR-29437 assessed as reduction in fungal growth incubated for 24 hrs by broth microdilution method; type: functional; settings: NR-29437, 24 h
Candida albicans [26] = test: Antifungal activity against Candida albicans NR-29444 assessed as reduction in fungal growth incubated for 24 hrs by broth microdilution method; type: functional; settings: NR-29444, 24 h
Candida albicans [27] = test: Antifungal activity against Candida albicans NR-29448 assessed as reduction in fungal growth incubated for 24 hrs by broth microdilution method; type: functional; settings: NR-29448, 24 h

O=C1Nc2ccc(OC(F)(F)F)cc2[C@@]12N[C@H](Cc1c[nH]cn1)[C@@H]([N+](=O)[O-])[C@@H]2c1ccc(Br)cc1
MIC (Candida albicans [1]): 8 µg/mL (≈ 14.5 µM)

O=C1Nc2ccc(OC(F)(F)F)cc2[C@@]12N[C@H](Cc1c[nH]cn1)[C@@H]([N+](=O)[O-])[C@@H]2c1ccc(Cl)cc1
MIC (Candida albicans [1]): 8 µg/mL (≈ 15.8 µM)

Cc1ccc([C@H]2[C@H]([N+](=O)[O-])[C@@H](Cc3c[nH]c4ccccc34)N[C@]23C(=O)Nc2ccccc23)cc1
MIC (Candida albicans [1]): 128 µg/mL (≈ 283 µM)

O=C1Nc2ccccc2[C@@]12N[C@H](Cc1c[nH]cn1)[C@@H]([N+](=O)[O-])[C@@H]2c1ccc(Cl)cc1
MIC (Candida albicans [1]): 8 µg/mL (≈ 18.9 µM)

O=C1Nc2ccccc2[C@@]12N[C@H](Cc1c[nH]cn1)[C@@H]([N+](=O)[O-])[C@@H]2c1ccc(Br)cc1
MIC (Candida albicans [1]): 16 µg/mL (≈ 34.2 µM)

O=C1Nc2ccccc2[C@@]12N[C@H](Cc1c[nH]c3ccccc13)[C@@H]([N+](=O)[O-])[C@@H]2c1cccc([N+](=O)[O-])c1
MIC (Candida albicans [1]): 8 µg/mL (≈ 16.5 µM)

O=C1Nc2ccc(OC(F)(F)F)cc2[C@@]12N[C@H](Cc1c[nH]c3ccccc13)[C@@H]([N+](=O)[O-])[C@@H]2c1ccccc1
MIC (Candida albicans [1]): 8 µg/mL (≈ 15.3 µM)

O=C1Nc2ccc(OC(F)(F)F)cc2[C@@]12N[C@H](Cc1c[nH]cn1)[C@@H]([N+](=O)[O-])[C@@H]2c1ccccc1
MIC (Candida albicans [1]): 32 µg/mL (≈ 67.6 µM)

O=C1Nc2ccccc2[C@@]12N[C@H](Cc1c[nH]c3ccccc13)[C@@H]([N+](=O)[O-])[C@@H]2c1ccc(Cl)cc1
MIC (Candida albicans [1]): 16 µg/mL (≈ 33.8 µM)

O=C1Nc2ccccc2[C@@]12N[C@H](Cc1c[nH]cn1)[C@@H]([N+](=O)[O-])[C@@H]2c1ccccc1
MIC (Candida albicans [1]): 16 µg/mL (≈ 41.1 µM)

COc1ccc([C@H]2[C@H]([N+](=O)[O-])[C@@H](Cc3c[nH]cn3)N[C@]23C(=O)Nc2ccc(OC(F)(F)F)cc23)cc1
MIC (Candida albicans [1]): 32 µg/mL (≈ 63.6 µM)

O=C1Nc2ccc(OC(F)(F)F)cc2[C@@]12N[C@H](Cc1c[nH]c3ccccc13)[C@@H]([N+](=O)[O-])[C@@H]2c1cccc([N+](=O)[O-])c1
MIC (Candida albicans [1]): 16 µg/mL (≈ 28.2 µM)

O=C1Nc2ccccc2[C@@]12N[C@H](Cc1c[nH]cn1)[C@@H]([N+](=O)[O-])[C@@H]2c1ccccc1Cl
MIC (Candida albicans [1]): 8 µg/mL (≈ 18.9 µM)

COc1ccc([C@H]2[C@H]([N+](=O)[O-])[C@@H](Cc3c[nH]cn3)N[C@]23C(=O)Nc2ccccc23)cc1
MIC (Candida albicans [1]): 32 µg/mL (≈ 76.3 µM)

Cc1ccc([C@H]2[C@H]([N+](=O)[O-])[C@@H](Cc3c[nH]c4ccccc34)N[C@]23C(=O)Nc2ccc(OC(F)(F)F)cc23)cc1
MIC (Candida albicans [1]): 32 µg/mL (≈ 59.6 µM)

O=C1Nc2ccc(OC(F)(F)F)cc2[C@@]12N[C@H](Cc1c[nH]c3ccccc13)[C@@H]([N+](=O)[O-])[C@@H]2c1ccc(Cl)cc1
MIC (Candida albicans [1]): 16 µg/mL (≈ 28.7 µM)

O=C1Nc2ccccc2[C@@]12N[C@H](Cc1c[nH]c3ccccc13)[C@@H]([N+](=O)[O-])[C@@H]2c1ccccc1
MIC (Candida albicans [1]): 64 µg/mL (≈ 146 µM)

O=C1Nc2ccc(OC(F)(F)F)cc2[C@@]12N[C@H](Cc1c[nH]cn1)[C@@H]([N+](=O)[O-])[C@@H]2c1ccccc1Cl
MIC (Cryptococcus neoformans [2]): 16 µg/mL (≈ 31.5 µM) | MIC (Cryptococcus neoformans [3]): 16 µg/mL (≈ 31.5 µM) | MIC (Cryptococcus neoformans [4]): 8 µg/mL (≈ 15.8 µM) | MIC (Candida albicans [5]): 16 µg/mL (≈ 31.5 µM) | inhibition (Candida albicans [6]): Active | MIC (Cryptococcus neoformans [7]): 16 µg/mL (≈ 31.5 µM) | MIC (Cryptococcus neoformans [8]): 16 µg/mL (≈ 31.5 µM) | MIC (Candida albicans [9]): 8 µg/mL (≈ 15.8 µM) | MIC (Candida albicans [10]): 16 µg/mL (≈ 31.5 µM) | MIC (Candida albicans [1]): 4 µg/mL (≈ 7.88 µM) | MIC (Cryptococcus neoformans [11]): 16 µg/mL (≈ 31.5 µM) | Activity (HCT-116): Non-Toxic | MIC (Cryptococcus neoformans [12]): 16 µg/mL (≈ 31.5 µM) | MIC (Cryptococcus neoformans [13]): 4 µg/mL (≈ 7.88 µM) | MIC (Candida albicans [14]): 8 µg/mL (≈ 15.8 µM) | MIC (Candida albicans [15]): 8 µg/mL (≈ 15.8 µM) | MIC (Candida albicans [16]): 8 µg/mL (≈ 15.8 µM) | MIC (Candida albicans [17]): 16 µg/mL (≈ 31.5 µM) | MIC (Candida albicans [18]): 16 µg/mL (≈ 31.5 µM) | inhibition (INH) (Candida albicans [19]): <=25% | MIC (Candida albicans [20]): 8 µg/mL (≈ 15.8 µM) | Activity (Candida albicans [21]): 30 - 40% | MIC (Candida albicans [22]): 4 µg/mL (≈ 7.88 µM) | MIC (Candida albicans [23]): 8 µg/mL (≈ 15.8 µM) | MIC (Candida albicans [24]): 16 µg/mL (≈ 31.5 µM) | MIC (Candida albicans [25]): 16 µg/mL (≈ 31.5 µM) | MIC (Candida albicans [26]): 16 µg/mL (≈ 31.5 µM) | MIC (Candida albicans [27]): 4 µg/mL (≈ 7.88 µM)

O=C1Nc2ccc(OC(F)(F)F)cc2[C@@]12N[C@H](Cc1c[nH]cn1)[C@@H]([N+](=O)[O-])[C@@H]2c1cccc([N+](=O)[O-])c1
MIC (Candida albicans [1]): 32 µg/mL (≈ 61.7 µM)

O=C1Nc2ccccc2[C@@]12N[C@H](Cc1c[nH]cn1)[C@@H]([N+](=O)[O-])[C@@H]2c1cccc([N+](=O)[O-])c1
MIC (Candida albicans [1]): 16 µg/mL (≈ 36.8 µM)

O=C1Nc2ccc(OC(F)(F)F)cc2[C@@]12N[C@H](Cc1c[nH]c3ccccc13)[C@@H]([N+](=O)[O-])[C@@H]2c1ccc(Br)cc1
MIC (Candida albicans [1]): 8 µg/mL (≈ 13.3 µM)

COc1ccc([C@H]2[C@H]([N+](=O)[O-])[C@@H](Cc3c[nH]c4ccccc34)N[C@]23C(=O)Nc2ccccc23)cc1
MIC (Candida albicans [1]): 16 µg/mL (≈ 34.2 µM)

COc1ccc([C@H]2[C@H]([N+](=O)[O-])[C@@H](Cc3c[nH]c4ccccc34)N[C@]23C(=O)Nc2ccc(OC(F)(F)F)cc23)cc1
MIC (Candida albicans [1]): 16 µg/mL (≈ 29 µM)

O=C1Nc2ccccc2[C@@]12N[C@H](Cc1c[nH]c3ccccc13)[C@@H]([N+](=O)[O-])[C@@H]2c1ccc(Br)cc1
MIC (Candida albicans [1]): 64 µg/mL (≈ 124 µM)

Cc1ccc([C@H]2[C@H]([N+](=O)[O-])[C@@H](Cc3c[nH]cn3)N[C@]23C(=O)Nc2ccccc23)cc1
MIC (Candida albicans [1]): 64 µg/mL (≈ 159 µM)

O=C1Nc2ccc(OC(F)(F)F)cc2[C@@]12N[C@H](Cc1c[nH]c3ccccc13)[C@@H]([N+](=O)[O-])[C@@H]2c1ccccc1Cl
MIC (Candida albicans [1]): 16 µg/mL (≈ 28.7 µM)

Cc1ccc([C@H]2[C@H]([N+](=O)[O-])[C@@H](Cc3c[nH]cn3)N[C@]23C(=O)Nc2ccc(OC(F)(F)F)cc23)cc1
MIC (Candida albicans [1]): 16 µg/mL (≈ 32.8 µM)

O=C1Nc2ccccc2[C@@]12N[C@H](Cc1c[nH]c3ccccc13)[C@@H]([N+](=O)[O-])[C@@H]2c1ccccc1Cl
MIC (Candida albicans [1]): 32 µg/mL (≈ 67.7 µM)
